Data reported in ChEMBL document CHEMBL3046185, “Antifeedant activity of neo-clerodane diterpenoids from Teucrium arduini” (2002).

Tested on: Spodoptera littoralis
Experiment: Antifeedant activity against Spodoptera littoralis using glass-fibre disks at 100 ppm measured after 18 hr by binary choice feeding bioassay relative to control
Assay type: functional

C[C@@H]1C[C@@H](O)[C@@]23CO[C@]2(CO)CCC[C@@H]3[C@@]12C[C@@H](c1ccoc1)OC2=O [MONTANIN D]
AFI: 82.1%

C[C@@H]1C[C@@H]2OC(=O)C3=C2[C@H](CCC3)[C@@]12C[C@@H](c1ccoc1)OC2=O [TEUCVIN]
AFI: 52.2%

C[C@@H]1C[C@@H](O)[C@@]2(CO)C(CO)=C[C@@H](O)C[C@@H]2[C@@]12C[C@@H](c1ccoc1)OC2=O [19-DEACETYLTEUSCORODOL]
AFI: -54.5%

CC(=O)OC[C@@]12CCC[C@@H]3[C@@]4(C[C@@H](c5ccoc5)OC4=O)[C@H](C)C[C@@H](OC(C)=O)[C@]31CO2 [DIACETYLMONTANIN D]
AFI: 34.6%

C[C@@H]1C[C@@H]2OC(=O)C3=C2[C@H](CC[C@@H]3O)[C@@]12C[C@@H](c1ccoc1)OC2=O [ISOTEUFLIFIN]
AFI: 11%

C[C@@H]1C[C@@H](O)[C@@]23COC(=O)C2C[C@@H](O)C[C@@H]3[C@@]12C[C@@H](c1ccoc1)OC2=O (some centres undefined) [DIHYDROTEUGIN]
AFI: -1.2%

C[C@@H]1C[C@@H](O)[C@@]23COC(=O)C2=CCC[C@@H]3[C@@]12C[C@@H](c1ccoc1)OC2=O [6BETA-HYDROXYTEUSCORDIN]
AFI: 73.1%

C[C@@H]1CC(=O)[C@@]23COC(=O)C2=CCC[C@@H]3[C@@]12C[C@@H](c1ccoc1)OC2=O [TEUSCORDINON]
AFI: 55.7%

C[C@@H]1C[C@@H](O)[C@@]23COC(=O)C2=C[C@@H](O)C[C@@H]3[C@@]12C[C@@H](c1ccoc1)OC2=O [TEUGIN]
AFI: 11.1%
